Molecular target: T1, phosphatase ABI1 via the co-regulator RCAR11/PYR1 (Arabidopsis thaliana, UniProt O49686+P49597)
T1 sequence (O49686 1-191): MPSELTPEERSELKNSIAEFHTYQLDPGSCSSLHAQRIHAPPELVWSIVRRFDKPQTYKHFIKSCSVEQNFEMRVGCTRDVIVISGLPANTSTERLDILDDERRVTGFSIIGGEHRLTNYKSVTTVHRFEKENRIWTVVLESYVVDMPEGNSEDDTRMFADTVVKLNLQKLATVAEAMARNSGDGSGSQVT
T1 sequence (P49597 1-434): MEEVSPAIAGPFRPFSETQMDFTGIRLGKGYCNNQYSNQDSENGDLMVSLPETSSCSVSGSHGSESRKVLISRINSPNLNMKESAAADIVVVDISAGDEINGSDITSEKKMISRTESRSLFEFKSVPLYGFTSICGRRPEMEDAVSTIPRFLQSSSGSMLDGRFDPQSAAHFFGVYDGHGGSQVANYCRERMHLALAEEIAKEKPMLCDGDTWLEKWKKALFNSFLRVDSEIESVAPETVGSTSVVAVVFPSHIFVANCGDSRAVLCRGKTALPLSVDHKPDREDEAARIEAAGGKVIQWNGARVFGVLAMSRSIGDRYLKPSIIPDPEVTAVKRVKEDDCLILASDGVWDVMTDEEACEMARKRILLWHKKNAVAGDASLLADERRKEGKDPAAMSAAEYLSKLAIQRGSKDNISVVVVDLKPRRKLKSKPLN
Assay: In vitro inhibition of the phosphatase ABI1 via the co-regulator RCAR11/PYR1, MUP dephosphorylation
Type: biochemical
Set-up: dose or concentration left out as unconfirmed
Conditions: in a solution of DMSO and water; fluorescence at 460 nm
How it was run: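 Arabidopsis ABI1 (0.15 μg/well) with RCAR11/PYR1 (0.30 μg/well) in Tris-HCl pH 8, NaCl, MnCl2, DTT, Tween20; MUP substrate, 20 min at 35 °C, fluorescence ex 340/em 460 nm. Compounds tested at 5 mM in DMSO/water, optionally pre-treated with porcine liver esterase; inhibition banded ≥90/70/50/30%.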

ABI1 inhibition: +++ (90%>inhibition≧70%)
Structure (SMILES): COC(=O)CCN1C(=O)CCc2cc(NS(=O)(=O)Cc3ccc(F)cc3)ccc21 [A51-158]

— patent US20170027172A1, “USE OF SUBSTITUTE OXO TETRAHYDROQUINOLINE SULFONAMIDES OR SALTS THEREOF FOR RAISING STRESS TOLERANCE OF PLANTS” (BAYER CROPSCIENCE AKTIENGESELLSCHAFT, priority 2014, published 2017)
